From patent publication US20180193336A1, “SPRAY DRY FORMULATIONS” (Pulmokine, Inc., priority 2013, published 2018)
Several values for one entry are separate records, joined by “and”; a condition that tells them apart may be missing. Identical values can stand only once. Marks after values point to notes of the source that are not given here.

Legend:
rat MCT+PN model [1] = test: Telemetry of pulmonary artery pressure in rat MCT+PN model; format: in vivo; details: for PA systolic pressure: separate MCT+PN telemetry study
Method: Pneumonectomy and implantation of a TRM53P telemetry monitor in the pulmonary artery (Telemetry Research, New Zealand and ADInstruments, Colorado) was carried out in rats. Two weeks after MCT, PK10453 (Structure 2) was administered three times daily for 1 week. […] The two groups underwent 4 min exposures of either the vehicle control or PK10453 (Structure 2). Sampling of PA pressure was performed 5 min before each morning dose in ambulatory animals in room air (estimated atmospheric pressure 716 mm Hg based on elevation of animal facility). […] Telemetry data was obtained for 10 min daily before each morning dose for this protocol.

rat MCT+PN model [2] = test: Pulmonary arteriole morphometry and occlusion analysis in rat MCT+PN model; format: in vivo
From the text: At the end of the study, the heart and lungs were removed from ventilated animals under general anesthesia. Heparinized saline was infused under pressure through the main pulmonary artery. The right upper lobe was immediately tied off and placed in liquid nitrogen for Western blot and NanoPro 100 assay analysis. The heart was removed, and the RV free wall, interventricular septum and LV free wall dissected and weighed. Buffered formalin (10%) was infused under pressure both through the pulmonary artery and the trachea. Morphometric analysis was performed on H&E stained formalin fixed tissue sectioned at 8 μm. The media area and lumen area of pulmonary arterioles were measured with Image J software by a technician blinded to treatment group. Measurements were made on 20 pulmonary arterioles per section. The ratio of the lumen area to the total media area was determined. This ratio normalizes the variation in total pulmonary arteriole area. In addition, occlusive analysis was performed in the monocrotaline plus pneumonectomy study (specifically efficacy study 5) according to the method of Homma et al., “Involvement of RhoA/Rho kinase signaling in protection against monocrotaline-induced pulmonary hypertension in pneumonectomized rats by dehydroepiandrosterone.” Am J Physiol Lung Cell Mol Physiol. Vol. 295:L71-8 (2008). Briefly, pre-capillary arterioles were assigned grade 0 for no evidence of neointimal lesions, grade 1 for less than 50% luminal occlusion, and grade 2 for greater than 50% occlusion. Masson Trichrome stains were performed on lung sections from the MCT+PN model.

[3] = Body weights of treated rats; format: in vivo, rat; details: D4 and D8 groups; FIG. 19
[4] = system: PDGFAA stimulated phosphorylation of ERK1 and ERK2; test: PDGFAA stimulated phosphorylation of ERK1 and ERK2 in human fetal lung fibroblasts; format: cell-based; details: 1 uM; PDGFAA 10 ng/ml
From the text: Data shown are mean±SEM. […] PK10453=structure 2; PK10571=structure 2a. Platelet derived growth factor receptor alpha=PDGFR-alpha=PDGFR-α=PDGF receptor alpha=PDGF alpha receptor. Platelet derived growth factor receptor beta=PDGFR-beta=PDGFRβ=PDGF receptor beta=PDGF beta receptor.

[5] = Aerosol particle size of nebulized drug, Anderson cascade impactor; format: physicochemical; details: 20 mg/ml in 1M tosylic acid, PARI nebulizer
Method: PK10453 (Structure 2) was dissolved at a concentration of 20 mg/ml in 1M tosylic acid. Nebulization was performed with a PARI Nebulizer with an air pressure of 12.5 psi. The aerosol droplets were neutralized by ammonia vapor that was passed into the aerosol air stream. The particles were then dried by flowing through an annular ring of silica bead cartridges prior to reaching the exposure chamber. The 6-port exposure chamber was a nose-only exposure system custom designed and built by Powerscope Inc. (Minneapolis, Minn.). The vacuum flow rate at each port was separately controlled by a flow meter. The aerosol particle size was measured at the exit port of the drying column with an Anderson (Mark II) cascade impactor. The mass median aerodynamic diameter (MMAD) was 2 μm and the associated geometric standard deviation (GSD) was 1.6.

rat MCT+PN model [6] = test: Two-chamber plethysmography, PK10453 in rat MCT+PN model; format: in vivo; details: for MV (minute ventilation) / PEF (peak expiratory flow) / PIF (peak inspiratory flow) / SRaw (airway resistance) / TV (tidal volume) / f (breathing frequency): MCT+PN, mean
Method: Plethysmography was performed with an EMKA dual chamber plethysmograph and IOX software. Parameters measured included breathing frequency, tidal volume, minute ventilation, peak inspiratory and expiratory flow, and airway resistance (SRaw). Animals were acclimatized to the plethysmograph for three days prior to first data acquisition. Measurements were made prior to the first dose of drug and at the end of the study.

[7] = Pharmacokinetic study, inhaled vs intravenous, lung and plasma levels; format: in vivo, rat; details: [(AUClung/AUCplasma)respiratory]/[(AUClung/AUCplasma)IV]
Method: PK10453 (Structure 2) was administered intravenously or by inhalation to animals, which were then euthanized at time 0, 10, 20, and 60 min (n=3 each time point). Blood samples were taken by cardiac puncture, and the lungs excised. The lungs were homogenized and PK10453 (Structure 2) extracted with a 1:3 mixture of acetonitrile:methanol. Similarly, plasma was extracted with a 1:3 mixture of acetonitrile:methanol. Drug was assayed by LC MS/MS (PharmOptima Inc., Portage Mich.). First order exponential curves were fit to the data with Excel. AUC was determined with the trapezoidal method of integration.
For the pharmacokinetic study, the concentration of PK10453 (Structure 2) in lung when administered by inhalation was compared to the concentration achieved with IV administration. As described in Moren “Aerosols in medicine: principles, diagnosis, and therapy.” Amsterdam; New York: Elsevier, xx, 429 (1993) and Phalen et al., “Inhalation exposure methodology.” Environ Health Perspect 56:23-34 (1984)), it is possible to estimate the pharmacokinetic advantage of inhalation relative to intravenous administration, Rd, by comparing the AUC of a plot of the drug concentration as a function of time following respiratory and IV administration: […]
The pharmacokinetic data was modeled to a first order exponential curve, and the AUC calculated from the curves (see Table 2). […]

In the case of `COc1cc(-c2cncc(N[C@@H](C)c3cccc(NC(=O)c4cncc(C)c4)c3)n2)ccc1O` [PK10453, (S)—N-(3-(1-((6-(4-hydroxy-β-methoxyphenyl)pyrazin-2yl)amino)ethyl)phenyl)-5-methylnicotinamide], the “efficacy by inhalation in the MCT+PN model” value (rat MCT+PN model [1]; rat MCT+PN) is reported as “effective in lowering pulmonary pressures”, the PA systolic pressure (rat MCT+PN model [1]; after five days of treatment) is reported as 47.2±3.0 mm Hg and the PA systolic pressure (rat MCT+PN model [1]; treatment day 9) is reported as 50.5±7 mm Hg. The “Grade 2 occlusion lesions” value (rat MCT+PN model [2]; D4) was 28.5±4.2%, the “lumen area to media area ratio (L/M)” value (rat MCT+PN model [2]; D4, FIG. 7 PANEL C) was 0.33±0.06 and the “Grade 2 occlusion lesions” value (rat MCT+PN model [2]; D8) was 11.4±4.1%. The “lumen area to media area ratio (L/M)” value (rat MCT+PN model [2]; D8, FIG. 7 PANEL C) was 0.72±0.05, the “lumen area to media area ratio (L/M)” value (rat MCT+PN model [2]; higher dose D8, FIG. 9) was 1.17±0.07 and the “lumen area to media area ratio (L/M)” value (rat MCT+PN model [2]; lower dose D4, FIG. 9) was 0.75±0.14. For the same compound, the “body weight compared to vehicle” value [3] was “trend to a slower rate of decline”, the “decrease of PDGF AA stimulated ppERK1 and ppERK2 formation” value [4] was “equally effective” and the “mass median aerodynamic diameter (MMAD) of dried nebulized aerosol” value [5] was 2 μm. For the same compound, the “MV (minute ventilation)” value (rat MCT+PN model [6]; D4, Day 1) was 223.24 mL/min, the “PEF (peak expiratory flow)” value (rat MCT+PN model [6]; D4, Day 1) was 11.04 and the “PIF (peak inspiratory flow)” value (rat MCT+PN model [6]; D4, Day 1) was 9.82. For the same compound, the “SRaw (airway resistance)” value (rat MCT+PN model [6]; D4, Day 1) was 39.73, the “TV (tidal volume)” value (rat MCT+PN model [6]; D4, Day 1) was 1.00 mL and the “f (breathing frequency)” value (rat MCT+PN model [6]; D4, Day 1) was 224.68 breaths per minute. The “MV (minute ventilation)” value (rat MCT+PN model [6]; D4, Day 15) was 176.12§ mL/min, the “PEF (peak expiratory flow)” value (rat MCT+PN model [6]; D4, Day 15) was 9.33* and the “PIF (peak inspiratory flow)” value (rat MCT+PN model [6]; D4, Day 15) was 7.82*. The “SRaw (airway resistance)” value (rat MCT+PN model [6]; D4, Day 15) was 33.09, the “TV (tidal volume)” value (rat MCT+PN model [6]; D4, Day 15) was 0.85 mL and the “f (breathing frequency)” value (rat MCT+PN model [6]; D4, Day 15) was 217.12 breaths per minute. The “MV (minute ventilation)” value (rat MCT+PN model [6]; D8, Day 1) was 174.68 mL/min, the “PEF (peak expiratory flow)” value (rat MCT+PN model [6]; D8, Day 1) was 9.43 and the “PIF (peak inspiratory flow)” value (rat MCT+PN model [6]; D8, Day 1) was 8.54. The “SRaw (airway resistance)” value (rat MCT+PN model [6]; D8, Day 1) was 36.01, the “TV (tidal volume)” value (rat MCT+PN model [6]; D8, Day 1) was 0.74 mL and the “f (breathing frequency)” value (rat MCT+PN model [6]; D8, Day 1) was 259.13 breaths per minute. The “MV (minute ventilation)” value (rat MCT+PN model [6]; D8, Day 15) was 128.49 mL/min, the “PEF (peak expiratory flow)” value (rat MCT+PN model [6]; D8, Day 15) was 6.64 and the “PIF (peak inspiratory flow)” value (rat MCT+PN model [6]; D8, Day 15) was 6.06. For the same compound, the “SRaw (airway resistance)” value (rat MCT+PN model [6]; D8, Day 15) was 49.26, the “TV (tidal volume)” value (rat MCT+PN model [6]; D8, Day 15) was 0.63 mL and the “f (breathing frequency)” value (rat MCT+PN model [6]; D8, Day 15) was 232.11 breaths per minute. For the same compound, the “effect on lung function” value (rat MCT+PN model [6]; inhaled, 2-wk course) was “did not adversely affect lung function” and the “Rd, pharmacokinetic advantage of inhalation relative to intravenous administration” value [7] was 44.6 fold and 45 fold and 44.58 fold.
